In PMC6437697 (Journal of Medicinal Chemistry, 2019):

Legend:
Experiment in all cases: KINOMEscan
Type in all cases: binding
Conditions in all cases: read-out: % control activity remaining
MKNK2 = target: T1, MKNK2 (Homo sapiens, UniProt Q9HBH9)
T1 construct: purchased Eurofins DiscoverX KINOMEscan

[1] = target: T2, EGFR(L747-S752del, P753S) (Homo sapiens, UniProt P00533, DEL747-752/P753S)
T2 construct: purchased Eurofins DiscoverX KINOMEscan

TRKC = target: T3, TRKC (Homo sapiens, UniProt Q16288)
T3 construct: purchased Eurofins DiscoverX KINOMEscan

STK39 = target: T4, STK39 (Homo sapiens, UniProt Q9UEW8)
T4 construct: purchased Eurofins DiscoverX KINOMEscan

EPHA1 = target: T5, EPHA1 (Homo sapiens, UniProt P21709)
T5 construct: purchased Eurofins DiscoverX KINOMEscan
T5 sequence (P21709 26-976): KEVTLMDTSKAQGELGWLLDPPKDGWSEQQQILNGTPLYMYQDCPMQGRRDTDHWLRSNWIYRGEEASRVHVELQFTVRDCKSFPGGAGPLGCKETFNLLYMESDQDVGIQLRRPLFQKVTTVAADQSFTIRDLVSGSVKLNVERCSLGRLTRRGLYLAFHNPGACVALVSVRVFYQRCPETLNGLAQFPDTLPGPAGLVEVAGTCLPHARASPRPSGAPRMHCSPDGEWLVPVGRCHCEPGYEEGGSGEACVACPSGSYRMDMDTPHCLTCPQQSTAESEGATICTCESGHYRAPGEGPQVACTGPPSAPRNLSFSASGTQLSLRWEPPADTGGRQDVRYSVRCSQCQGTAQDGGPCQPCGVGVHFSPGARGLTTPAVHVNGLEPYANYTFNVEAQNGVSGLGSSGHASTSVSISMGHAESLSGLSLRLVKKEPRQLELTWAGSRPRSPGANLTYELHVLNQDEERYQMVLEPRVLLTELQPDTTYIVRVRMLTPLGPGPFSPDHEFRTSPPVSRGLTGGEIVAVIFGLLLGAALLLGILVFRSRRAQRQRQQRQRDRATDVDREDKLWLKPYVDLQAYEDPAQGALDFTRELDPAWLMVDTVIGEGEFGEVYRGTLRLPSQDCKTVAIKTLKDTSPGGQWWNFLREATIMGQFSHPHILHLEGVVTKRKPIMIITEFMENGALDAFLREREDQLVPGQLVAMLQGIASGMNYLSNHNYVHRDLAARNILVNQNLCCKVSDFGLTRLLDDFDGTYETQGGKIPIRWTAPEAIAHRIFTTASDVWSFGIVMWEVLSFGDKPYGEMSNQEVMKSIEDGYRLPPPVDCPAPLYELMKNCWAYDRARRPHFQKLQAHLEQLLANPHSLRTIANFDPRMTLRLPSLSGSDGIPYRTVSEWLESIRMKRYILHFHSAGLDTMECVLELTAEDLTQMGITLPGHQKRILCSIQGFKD

CAMK2G = target: T6, CAMK2G (Homo sapiens, UniProt Q13555)
T6 construct: purchased Eurofins DiscoverX KINOMEscan

SBK1 = target: T7, SBK1 (Homo sapiens, UniProt Q52WX2)
T7 construct: purchased Eurofins DiscoverX KINOMEscan
T7 sequence (Q52WX2 whole entry): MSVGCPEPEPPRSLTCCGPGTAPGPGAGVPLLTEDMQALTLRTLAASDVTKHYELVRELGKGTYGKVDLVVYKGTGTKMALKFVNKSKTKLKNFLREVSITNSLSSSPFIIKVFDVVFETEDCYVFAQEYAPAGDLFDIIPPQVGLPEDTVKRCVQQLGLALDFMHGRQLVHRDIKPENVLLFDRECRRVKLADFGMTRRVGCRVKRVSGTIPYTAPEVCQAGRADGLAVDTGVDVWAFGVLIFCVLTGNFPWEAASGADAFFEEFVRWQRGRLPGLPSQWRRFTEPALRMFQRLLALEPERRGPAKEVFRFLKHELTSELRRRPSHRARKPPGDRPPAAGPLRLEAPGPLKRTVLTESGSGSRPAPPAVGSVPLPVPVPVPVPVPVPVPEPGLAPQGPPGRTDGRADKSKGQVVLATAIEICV

NEK4 = target: T8, NEK4 (Homo sapiens, UniProt P51957)
T8 construct: purchased Eurofins DiscoverX KINOMEscan
T8 sequence (P51957 whole entry): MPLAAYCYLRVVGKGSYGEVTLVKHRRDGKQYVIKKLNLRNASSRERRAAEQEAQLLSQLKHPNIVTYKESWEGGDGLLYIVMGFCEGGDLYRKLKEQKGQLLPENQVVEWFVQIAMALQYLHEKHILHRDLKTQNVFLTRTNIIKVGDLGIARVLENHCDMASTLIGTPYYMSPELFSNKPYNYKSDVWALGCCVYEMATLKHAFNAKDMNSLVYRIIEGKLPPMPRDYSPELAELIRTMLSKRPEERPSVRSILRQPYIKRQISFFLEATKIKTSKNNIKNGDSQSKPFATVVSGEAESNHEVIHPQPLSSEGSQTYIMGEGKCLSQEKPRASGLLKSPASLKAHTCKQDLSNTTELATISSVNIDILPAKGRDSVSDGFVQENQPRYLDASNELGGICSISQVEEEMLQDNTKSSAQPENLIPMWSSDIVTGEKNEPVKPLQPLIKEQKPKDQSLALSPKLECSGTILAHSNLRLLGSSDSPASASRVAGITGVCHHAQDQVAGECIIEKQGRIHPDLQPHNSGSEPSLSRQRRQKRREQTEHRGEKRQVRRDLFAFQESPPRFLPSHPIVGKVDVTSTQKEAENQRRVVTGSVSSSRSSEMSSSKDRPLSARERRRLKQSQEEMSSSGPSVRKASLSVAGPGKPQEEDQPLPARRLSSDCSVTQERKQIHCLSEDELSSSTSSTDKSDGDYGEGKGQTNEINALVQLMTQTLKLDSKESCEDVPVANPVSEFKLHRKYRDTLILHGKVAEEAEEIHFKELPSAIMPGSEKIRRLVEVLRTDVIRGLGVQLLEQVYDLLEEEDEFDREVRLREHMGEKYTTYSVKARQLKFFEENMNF

ROS1 = target: T9, ROS1 (Homo sapiens, UniProt P08922)
T9 construct: purchased Eurofins DiscoverX KINOMEscan
T9 sequence (P08922 28-2347): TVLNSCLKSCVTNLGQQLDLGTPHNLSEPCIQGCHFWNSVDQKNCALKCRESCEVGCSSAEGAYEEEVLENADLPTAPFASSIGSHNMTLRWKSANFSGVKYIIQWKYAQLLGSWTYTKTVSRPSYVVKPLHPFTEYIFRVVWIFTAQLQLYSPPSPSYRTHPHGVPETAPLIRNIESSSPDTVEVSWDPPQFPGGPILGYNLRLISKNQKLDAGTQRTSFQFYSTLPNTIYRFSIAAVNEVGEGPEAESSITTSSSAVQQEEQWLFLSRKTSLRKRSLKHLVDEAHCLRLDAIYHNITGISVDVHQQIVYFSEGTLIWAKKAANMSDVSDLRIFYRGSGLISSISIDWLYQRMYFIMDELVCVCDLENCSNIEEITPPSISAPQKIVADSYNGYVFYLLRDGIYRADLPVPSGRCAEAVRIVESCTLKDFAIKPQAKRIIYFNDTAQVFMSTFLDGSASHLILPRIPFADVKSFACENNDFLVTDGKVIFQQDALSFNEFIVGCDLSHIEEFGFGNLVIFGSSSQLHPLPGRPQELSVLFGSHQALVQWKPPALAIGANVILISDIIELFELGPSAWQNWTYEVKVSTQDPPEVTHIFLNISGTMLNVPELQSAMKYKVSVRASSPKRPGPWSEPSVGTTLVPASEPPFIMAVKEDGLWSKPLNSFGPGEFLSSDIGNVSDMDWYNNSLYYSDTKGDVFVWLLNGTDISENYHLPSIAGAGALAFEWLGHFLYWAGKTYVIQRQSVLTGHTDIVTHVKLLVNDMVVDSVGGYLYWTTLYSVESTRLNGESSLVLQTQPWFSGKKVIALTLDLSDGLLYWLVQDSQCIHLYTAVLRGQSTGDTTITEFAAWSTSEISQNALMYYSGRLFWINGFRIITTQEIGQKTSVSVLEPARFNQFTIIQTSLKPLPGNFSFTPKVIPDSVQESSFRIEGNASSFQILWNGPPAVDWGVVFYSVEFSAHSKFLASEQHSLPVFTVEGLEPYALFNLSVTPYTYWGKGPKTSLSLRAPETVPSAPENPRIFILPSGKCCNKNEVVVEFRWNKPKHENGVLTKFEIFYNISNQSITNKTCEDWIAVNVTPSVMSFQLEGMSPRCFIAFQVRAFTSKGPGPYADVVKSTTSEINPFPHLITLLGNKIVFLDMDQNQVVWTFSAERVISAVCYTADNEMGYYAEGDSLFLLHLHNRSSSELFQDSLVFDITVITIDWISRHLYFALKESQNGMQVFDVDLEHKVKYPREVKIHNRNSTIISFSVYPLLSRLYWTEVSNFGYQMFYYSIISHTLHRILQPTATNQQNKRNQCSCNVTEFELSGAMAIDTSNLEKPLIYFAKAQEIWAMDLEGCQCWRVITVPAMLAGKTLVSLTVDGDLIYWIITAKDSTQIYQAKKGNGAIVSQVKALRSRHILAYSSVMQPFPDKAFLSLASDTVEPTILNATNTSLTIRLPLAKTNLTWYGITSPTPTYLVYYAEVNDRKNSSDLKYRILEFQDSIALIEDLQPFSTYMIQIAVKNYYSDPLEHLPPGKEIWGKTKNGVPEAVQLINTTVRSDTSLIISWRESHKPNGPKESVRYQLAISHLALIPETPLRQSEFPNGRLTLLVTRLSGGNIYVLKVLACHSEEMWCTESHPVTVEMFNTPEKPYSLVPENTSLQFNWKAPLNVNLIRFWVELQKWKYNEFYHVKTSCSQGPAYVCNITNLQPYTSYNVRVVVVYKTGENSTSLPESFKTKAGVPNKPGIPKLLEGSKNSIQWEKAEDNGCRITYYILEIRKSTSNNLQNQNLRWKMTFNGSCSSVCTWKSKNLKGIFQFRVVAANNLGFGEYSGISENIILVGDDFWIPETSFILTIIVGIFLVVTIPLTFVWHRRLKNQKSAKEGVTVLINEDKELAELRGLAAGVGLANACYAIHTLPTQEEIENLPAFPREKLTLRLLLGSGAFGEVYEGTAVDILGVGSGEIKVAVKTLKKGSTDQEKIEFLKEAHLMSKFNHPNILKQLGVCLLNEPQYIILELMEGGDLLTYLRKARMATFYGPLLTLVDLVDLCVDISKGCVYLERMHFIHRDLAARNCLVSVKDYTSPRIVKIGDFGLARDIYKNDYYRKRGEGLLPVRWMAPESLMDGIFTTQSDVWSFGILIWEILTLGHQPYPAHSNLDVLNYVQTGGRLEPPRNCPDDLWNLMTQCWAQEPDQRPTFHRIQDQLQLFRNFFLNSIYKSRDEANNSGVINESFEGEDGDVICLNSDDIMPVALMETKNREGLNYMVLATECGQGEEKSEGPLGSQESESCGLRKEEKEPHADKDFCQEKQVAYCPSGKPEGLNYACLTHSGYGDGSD

CSNK1G2 = target: T10, CSNK1G2 (Homo sapiens, UniProt P78368)
T10 construct: purchased Eurofins DiscoverX KINOMEscan
T10 sequence (P78368 whole entry): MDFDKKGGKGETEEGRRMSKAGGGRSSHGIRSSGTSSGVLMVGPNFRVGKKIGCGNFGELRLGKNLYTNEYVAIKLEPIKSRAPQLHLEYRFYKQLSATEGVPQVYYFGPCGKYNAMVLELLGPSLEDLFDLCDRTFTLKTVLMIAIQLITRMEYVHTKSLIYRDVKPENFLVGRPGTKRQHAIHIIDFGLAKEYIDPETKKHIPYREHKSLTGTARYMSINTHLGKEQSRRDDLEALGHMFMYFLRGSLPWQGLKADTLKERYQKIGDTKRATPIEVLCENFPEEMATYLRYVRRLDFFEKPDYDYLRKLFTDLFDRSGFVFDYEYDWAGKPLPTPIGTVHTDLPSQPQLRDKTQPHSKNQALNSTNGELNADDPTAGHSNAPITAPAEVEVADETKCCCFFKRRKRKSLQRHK

[2] = target: T11, RSK1(Kin.Dom.2-C-terminal) (Homo sapiens, UniProt Q15418)
T11 construct: RSK1(Kin.Dom.2-C-terminal); purchased Eurofins DiscoverX KINOMEscan
T11 sequence (Q15418 418-675 limits assumed): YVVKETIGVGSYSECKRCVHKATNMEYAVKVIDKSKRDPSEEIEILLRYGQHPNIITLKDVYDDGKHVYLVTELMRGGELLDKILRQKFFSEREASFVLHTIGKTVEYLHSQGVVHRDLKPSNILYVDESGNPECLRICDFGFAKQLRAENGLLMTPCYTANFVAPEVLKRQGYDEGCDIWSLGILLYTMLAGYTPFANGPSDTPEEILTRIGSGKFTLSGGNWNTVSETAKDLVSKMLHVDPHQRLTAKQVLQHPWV

FLT3(D835Y) = target: T12, FLT3(D835Y) (Homo sapiens, UniProt P36888, D835Y)
T12 construct: purchased Eurofins DiscoverX KINOMEscan
T12 sequence (P36888 27-993 D835Y): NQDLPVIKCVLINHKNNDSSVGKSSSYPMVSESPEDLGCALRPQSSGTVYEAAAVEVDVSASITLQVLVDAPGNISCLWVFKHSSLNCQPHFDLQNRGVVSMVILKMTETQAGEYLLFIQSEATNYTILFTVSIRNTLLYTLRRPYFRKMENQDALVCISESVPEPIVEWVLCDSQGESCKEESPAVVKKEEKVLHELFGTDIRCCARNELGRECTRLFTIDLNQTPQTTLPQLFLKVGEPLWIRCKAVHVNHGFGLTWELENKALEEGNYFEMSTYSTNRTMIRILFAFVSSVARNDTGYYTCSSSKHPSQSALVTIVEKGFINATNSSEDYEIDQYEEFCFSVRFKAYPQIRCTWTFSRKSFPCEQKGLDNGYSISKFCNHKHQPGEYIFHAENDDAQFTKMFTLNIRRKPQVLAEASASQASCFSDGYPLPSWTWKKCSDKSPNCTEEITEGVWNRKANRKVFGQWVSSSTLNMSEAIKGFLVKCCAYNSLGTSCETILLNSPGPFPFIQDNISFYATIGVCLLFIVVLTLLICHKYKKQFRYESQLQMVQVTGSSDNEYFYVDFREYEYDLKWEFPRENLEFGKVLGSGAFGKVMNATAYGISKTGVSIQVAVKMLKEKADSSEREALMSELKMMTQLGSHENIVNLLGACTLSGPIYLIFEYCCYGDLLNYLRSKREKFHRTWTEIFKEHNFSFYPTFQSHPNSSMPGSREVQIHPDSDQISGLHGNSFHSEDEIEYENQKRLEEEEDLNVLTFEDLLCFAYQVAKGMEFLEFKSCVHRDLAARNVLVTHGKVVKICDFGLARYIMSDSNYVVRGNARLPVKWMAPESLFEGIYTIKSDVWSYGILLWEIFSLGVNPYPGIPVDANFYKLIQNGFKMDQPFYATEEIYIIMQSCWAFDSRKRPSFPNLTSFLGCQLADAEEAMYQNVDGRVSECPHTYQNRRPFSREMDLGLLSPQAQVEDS

T1 sequence (Q9HBH9 whole entry): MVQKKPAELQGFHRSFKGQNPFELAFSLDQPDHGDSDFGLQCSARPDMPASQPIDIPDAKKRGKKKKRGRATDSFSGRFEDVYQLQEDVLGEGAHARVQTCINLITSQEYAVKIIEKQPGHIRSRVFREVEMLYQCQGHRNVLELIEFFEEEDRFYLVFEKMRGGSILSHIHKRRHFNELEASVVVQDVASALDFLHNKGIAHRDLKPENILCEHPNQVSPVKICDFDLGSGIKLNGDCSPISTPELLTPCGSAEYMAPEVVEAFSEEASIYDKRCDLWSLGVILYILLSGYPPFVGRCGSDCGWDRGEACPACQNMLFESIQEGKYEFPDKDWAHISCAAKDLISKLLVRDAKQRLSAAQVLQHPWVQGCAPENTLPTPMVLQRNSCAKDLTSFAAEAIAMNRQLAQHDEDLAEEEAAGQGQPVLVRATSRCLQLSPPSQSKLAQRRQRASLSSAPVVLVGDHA
T2 sequence (P00533 with tags, fused parts or gaps DEL747-752/P753S limits assumed): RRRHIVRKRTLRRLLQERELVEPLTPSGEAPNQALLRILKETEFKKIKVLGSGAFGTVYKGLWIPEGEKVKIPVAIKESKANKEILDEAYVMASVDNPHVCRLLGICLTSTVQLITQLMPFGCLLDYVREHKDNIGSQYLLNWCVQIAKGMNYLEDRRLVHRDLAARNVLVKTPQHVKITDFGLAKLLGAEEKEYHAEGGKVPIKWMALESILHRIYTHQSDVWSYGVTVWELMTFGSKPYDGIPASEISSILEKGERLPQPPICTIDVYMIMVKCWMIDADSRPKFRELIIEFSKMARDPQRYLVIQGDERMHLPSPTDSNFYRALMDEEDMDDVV

SMILES	remaining binding at 1 µM (MKNK2) [%]	remaining binding at 1 µM [1] [%]	remaining binding at 1 µM (TRKC) [%]	remaining binding at 1 µM (STK39) [%]	remaining binding at 1 µM (EPHA1) [%]	remaining binding at 1 µM (CAMK2G) [%]	remaining binding at 1 µM (SBK1) [%]	remaining binding at 1 µM (NEK4) [%]	remaining binding at 1 µM (ROS1) [%]	remaining binding at 1 µM (CSNK1G2) [%]	remaining binding at 1 µM [2] [%]	remaining binding at 1 µM (FLT3(D835Y)) [%]
Clc1cc(NCC2CC2)c2ncc(-c3ccc4[nH]ncc4c3)n2n1 [compound 2, 6-Chloro-N-(cyclopropylmethyl)-3-(1H-indazol-5-yl)imidazo[1,2-b]pyridazin-8-amine]	80	89	87	88	80	100	87	99	100	100	83	10
O=C(CN1CCOCC1)N[C@H]1CC[C@H](Nc2cc(Cl)nn3c(-c4ccc5[nH]ncc5c4)cnc23)CC1 [compound 26]	67	81	100	89	84	52	89	100	100	95	59	17
CN1CCC(CNc2cc(Cl)nn3c(-c4cc5nc(Nc6ccccc6)[nH]c5cc4F)cnc23)CC1 [compound 31, 6-Chloro-3-(6-fluoro-2-(phenylamino)-1H-benzo[d]imidazol-5-yl)-N-((1-methylpiperidin-4-yl)methyl)imidazo[1,2-b]pyridazin-8-amine]	74	100	100	98	99	100	77	95	96	96	96	100
